In US20230117034A1, “PYRAZOLOTRIAZINES” (Bayer Aktiengesellschaft, priority 2019, published 2023):
pIC50: −log10 of the molar value.

Tests used:
Format in all cases: cell-based
[1] = tested on: MDA-MB-231, human breast cancer cells; assay: Proliferation assay MDA-MB-231 (crystal violet, 4 days); conditions: Homo sapiens, MDA-MB-231, 96 h, MDA-MB-231 cells, median, read-out: Prolif-MDA MB-231, IC50-[mol/l] (median)
Procedure, shortened: (§1)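 Growth was measured by crystal violet staining after cells had been treated with compounds (0.01-10 µmol/L, 0.1% DMSO) for 4 days, beginning 24 h after seeding. Values were normalized to a zero-point plate and to untreated controls, and IC50 values were derived by a four-parameter fit.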

[2] = target: T1, CDK12 protein level in CAL-120 breast cancer cells (Homo sapiens, UniProt Q9NYV4); assay: CDK12 protein level: Protein Simple (CDK12, CAL-120); conditions: CAL-120 cells, 18 h with compound, CDK12/HSP90 peak area ratio vs vehicle, median, read-out: CDK12 protein level in CAL-120 breast ca cells, DC50-[mol/l] (median)
T1 construct: endogenous in cells; host or cells: CAL-120 human breast cancer cells (DSMZ ACC 459)
T1 sequence (Q9NYV4 whole entry): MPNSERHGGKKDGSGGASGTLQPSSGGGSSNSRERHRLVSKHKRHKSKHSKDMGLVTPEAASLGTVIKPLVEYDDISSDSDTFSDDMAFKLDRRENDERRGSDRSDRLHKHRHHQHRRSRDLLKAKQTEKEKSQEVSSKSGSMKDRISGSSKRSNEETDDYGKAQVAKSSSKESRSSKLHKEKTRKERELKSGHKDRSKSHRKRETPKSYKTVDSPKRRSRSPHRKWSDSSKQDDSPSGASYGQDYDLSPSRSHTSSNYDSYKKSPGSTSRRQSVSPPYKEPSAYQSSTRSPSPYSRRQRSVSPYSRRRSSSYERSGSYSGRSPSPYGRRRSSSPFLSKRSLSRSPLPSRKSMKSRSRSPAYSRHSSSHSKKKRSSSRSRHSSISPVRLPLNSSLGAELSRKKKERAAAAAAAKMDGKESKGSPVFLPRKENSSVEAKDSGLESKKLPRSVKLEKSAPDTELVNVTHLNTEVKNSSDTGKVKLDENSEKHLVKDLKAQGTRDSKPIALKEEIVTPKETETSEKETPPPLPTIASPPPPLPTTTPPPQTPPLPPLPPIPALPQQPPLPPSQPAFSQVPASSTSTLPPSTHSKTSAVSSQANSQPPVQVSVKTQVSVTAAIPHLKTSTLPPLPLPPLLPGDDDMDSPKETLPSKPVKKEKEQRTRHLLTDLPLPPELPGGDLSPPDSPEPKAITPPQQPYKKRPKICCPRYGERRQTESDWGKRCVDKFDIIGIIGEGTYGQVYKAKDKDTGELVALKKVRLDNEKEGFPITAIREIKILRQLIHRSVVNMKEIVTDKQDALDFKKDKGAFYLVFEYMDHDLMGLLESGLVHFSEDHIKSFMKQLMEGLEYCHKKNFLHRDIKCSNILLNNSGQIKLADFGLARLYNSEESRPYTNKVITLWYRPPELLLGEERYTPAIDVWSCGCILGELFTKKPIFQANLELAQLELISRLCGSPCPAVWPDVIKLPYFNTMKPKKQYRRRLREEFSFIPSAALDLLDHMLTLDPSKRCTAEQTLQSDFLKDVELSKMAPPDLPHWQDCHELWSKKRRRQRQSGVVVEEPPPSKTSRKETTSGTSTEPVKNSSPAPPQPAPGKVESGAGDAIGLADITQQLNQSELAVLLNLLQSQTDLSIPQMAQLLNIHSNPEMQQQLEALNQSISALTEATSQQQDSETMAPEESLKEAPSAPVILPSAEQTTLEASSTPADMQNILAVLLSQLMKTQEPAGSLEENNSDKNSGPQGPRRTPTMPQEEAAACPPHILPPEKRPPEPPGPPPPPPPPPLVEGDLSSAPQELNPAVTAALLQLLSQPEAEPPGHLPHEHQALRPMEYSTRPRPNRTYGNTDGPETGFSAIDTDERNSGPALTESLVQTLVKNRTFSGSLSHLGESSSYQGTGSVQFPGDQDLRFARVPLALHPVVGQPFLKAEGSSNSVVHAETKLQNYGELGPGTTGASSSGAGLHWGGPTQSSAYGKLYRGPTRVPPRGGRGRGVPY
T1 sequence (O75909 whole entry partner): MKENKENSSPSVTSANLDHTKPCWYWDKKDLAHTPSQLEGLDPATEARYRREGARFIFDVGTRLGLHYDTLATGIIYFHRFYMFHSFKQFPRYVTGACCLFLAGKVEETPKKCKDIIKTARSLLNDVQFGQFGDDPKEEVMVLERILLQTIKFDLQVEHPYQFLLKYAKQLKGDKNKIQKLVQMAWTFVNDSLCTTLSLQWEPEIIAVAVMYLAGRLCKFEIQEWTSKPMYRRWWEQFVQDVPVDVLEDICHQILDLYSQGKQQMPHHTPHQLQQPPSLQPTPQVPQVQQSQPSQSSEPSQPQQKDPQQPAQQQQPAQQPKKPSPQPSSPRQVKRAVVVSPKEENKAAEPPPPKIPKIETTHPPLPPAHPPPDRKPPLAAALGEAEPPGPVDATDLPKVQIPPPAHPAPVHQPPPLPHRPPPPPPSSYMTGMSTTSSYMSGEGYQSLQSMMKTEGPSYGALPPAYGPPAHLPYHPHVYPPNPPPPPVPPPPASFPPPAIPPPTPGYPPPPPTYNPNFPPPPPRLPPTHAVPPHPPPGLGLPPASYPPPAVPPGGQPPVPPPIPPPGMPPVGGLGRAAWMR
Procedure, shortened: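 Cells grown 24 h, then treated with compounds for 18 h at 37° C against DMSO controls. Lysates (0.4 microgramms protein) run on Protein Simple 66-440 kDa size assay with CDK12 and HSP90 loading-control antibodies. CDK12/HSP90 peak-area ratios versus vehicle gave DC50 (50% reduction) by 4-parameter fit.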

[3] = tested on: CAL-120, human breast adenocarcinoma cells; assay: Proliferation assay CAL-120 (crystal violet, 4 days); conditions: Homo sapiens, CAL-120, 96 h, CAL-120 cells, median, read-out: Prolif-CAL-120, IC50-[mol/l] (median)
Procedure, shortened: as §1

Compound	pIC50 [1]	DC50 [2] [µM]	pIC50 [3]
Brc1cnn2c(NCc3nnc(-c4ccccc4)[nH]3)nc(N3CCCC3)nc12 [Example 64, 8-bromo-N-[(5-phenyl-4H-1,2,4-triazol-3-yl)methyl]-2-(pyrrolidin-1-yl)pyrazolo[1,5-a][1,3,5]triazin-4-amine]	–	0.0871	7.44
CCc1cnn2c(NCc3nc4c(F)c(F)ccc4[nH]3)nc(N3CCN(C)CC3)nc12.O=CO [Example 435, formic acid N-[(4,5-difluoro-1H-benzimidazol-2-yl)methyl]-8-ethyl-2-(4-methylpiperazin-1-yl)pyrazolo[1,5-a][1,3,5]triazin-4-amine]	8.37	–	8.75
CN1CCN(c2nc(NCc3nc4cc(Cl)c(Cl)cc4[nH]3)n3ncc(C4CC4)c3n2)CC1 [Example 305, 8-cyclopropyl-N-[(5,6-dichloro-1H-benzimidazol-2-yl)methyl]-2-(4-methylpiperazin-1-yl)pyrazolo[1,5-a][1,3,5]triazin-4-amine]	8.23	–	8.35
CN1CCN(c2nc(NCc3nc4cc(C(F)(F)F)ccc4[nH]3)n3ncc(C4CC4)c3n2)CC1 [Example 313, 8-cyclopropyl-2-(4-methylpiperazin-1-yl)-N-{[5-(trifluoromethyl)-1H-benzimidazol-2-yl]methyl}pyrazolo[1,5-a][1,3,5]triazin-4-amine]	7.81	–	8.02
Fc1ccc(-c2cnc(CNc3nc(N4CCOCC4)nc4c(Br)cnn34)[nH]2)cc1 [Example 66, 8-bromo-N-{[5-(4-fluorophenyl)-1H-imidazol-2-yl]methyl}-2-(morpholin-4-yl)pyrazolo[1,5-a][1,3,5]triazin-4-amine]	–	0.0437	6.64
COC(=O)C1CCN(c2nc(NCc3nc4ccccc4[nH]3)n3ncc(Br)c3n2)CC1 [Example 63, methyl 1-(4-{[(1H-benzimidazol-2-yl)methyl]amino}-8-bromopyrazolo[1,5-a][1,3,5]triazin-2-yl)piperidine-4-carboxylate]	–	0.0418	7.44

Second part, the molecule after the results:

pIC50 [1]	DC50 [2] [µM]	pIC50 [3]	Compound
7.06	0.0574	–	CC(C)c1cnn2c(NCc3nc4ccccc4[nH]3)nc(N3CCOCC3)nc12 [Example 1, N-[(1H-benzimidazol-2-yl)methyl]-2-(morpholin-4-yl)-8-(propan-2-yl)pyrazolo[1,5-a][1,3,5]triazin-4-amine]
–	0.128	7.49	COC1CCN(c2nc(NCc3nc4ccccc4[nH]3)n3ncc(Br)c3n2)CC1 [Example 62, N-[(1H-benzimidazol-2-yl)methyl]-8-bromo-2-(4-methoxypiperidin-1-yl)pyrazolo[1,5-a][1,3,5]triazin-4-amine]
6.53	–	6.88	O[C@@H]1CCN(c2nc(NCc3nc4ccccc4[nH]3)n3ncc(Br)c3n2)C1 [Example 202, (3R)-1-(4-{[(1H-benzimidazol-2-yl)methyl]amino}-8-bromopyrazolo[1,5-a][1,3,5]triazin-2-yl)pyrrolidin-3-ol]
